Data reported in US10800791B2, “Triazole ACC inhibitors and uses thereof” (Gilead Apollo, LLC, priority 2015, dated 2020).
Values after ≈ are worked out from the molar mass of the structure shown. Where two headings read alike, the source gives them in different places.

Experiments:
human (hACC2) = human (hACC2) (Homo sapiens, UniProt O00763); experiment: In vitro ACC inhibition assay (ADP-Glo), hACC2; format: biochemical; conditions: 5 nM ACC2, 20 μM ATP, 20 μM acetyl-CoA
Description: The detailed procedure is as follows. […] 10 μL ADP glo reagent was added. […] 20 μL kinase detection reagent was added.

C. albicans = experiment: Antifungal Activity Assay (broth microtiter MIC), C. albicans; format: cell-based, Candida albicans; conditions: Candida albicans, ATCC90028, 48 h
Method in brief: (§1)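 Susceptibility was determined by CLSI M27-A3 broth microdilution in RPMI 1640 buffered with MOPS. Growth inhibition was scored visually after 48 h.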

C. parapsilosis = experiment: Antifungal Activity Assay (broth microtiter MIC), C. parapsilosis; format: cell-based, Candida parapsilosis; conditions: Lodderomyces parapsilosis, ATCC22019, 48 h
Method in brief: as §1

Botrtyis cinerea (Bc) = experiment: Growth inhibition assay of fungal pathogens, Bc; format: cell-based; conditions: 48 h
Method in brief: (§2)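 Percent inhibition derived at 48 hours from OD600 and visual scores versus 2% DMSO control, with media+DMSO blank as background. Spore inocula in 17% V8 medium were sized from 48 h growth curves; compounds tested at final 50/10/2 or 2/0.4/0.08 ppm.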

Diplodia maydis (Dm) = experiment: Growth inhibition assay of fungal pathogens, Dm; format: cell-based; conditions: Stenocarpella maydis, 48 h
Method in brief: as §2

[1] = system: Fusarium moniliforme (Fm); experiment: Growth inhibition assay of fungal pathogens, Fm; format: cell-based; conditions: for IC90: Fusarium verticillioides, 48 h, read-out: Concentration at 90% Inhibition Fm
Method in brief: as §2

[2] = system: Fusarium virguliforme (Fv); experiment: Growth inhibition assay of fungal pathogens, Fv; format: cell-based; conditions: 48 h
Method in brief: as §2

Rhizoctonia solani (Rs) = experiment: Growth inhibition assay of fungal pathogens, Rs; format: cell-based; conditions: 48 h
Septoria tritici (St) = experiment: Growth inhibition assay of fungal pathogens, St; format: cell-based; conditions: Zymoseptoria tritici, 48 h
Method in brief: as §2

[3] = read-out: MIC, C. albicans ATCC 90028, Table 3a, 3 replicates, MIC recorded at 48 h
[4] = read-out: MIC, C. albicans ATCC 90028, Table 3b (additional results), 3 replicates, MIC recorded at 48 h
[5] = read-out: MIC, C. parapsilosis ATCC 22019, Table 3a, 3 replicates, MIC recorded at 48 h
[6] = read-out: MIC, C. parapsilosis ATCC 22019, Table 3b (additional results), 3 replicates, MIC recorded at 48 h
[7] = read-out: Concentration at 90% Inhibition Bc, Botrtyis cinerea, growth inhibition at 48 hours vs 2% DMSO control
[8] = read-out: Concentration at 90% Inhibition Bc, Botrtyis cinerea, growth inhibition vs 2% DMSO control at 48 hours
[9] = read-out: Concentration at 90% Inhibition Dm, Diplodia maydis, growth inhibition at 48 hours vs 2% DMSO control
[10] = read-out: Concentration at 90% Inhibition Dm, Diplodia maydis, growth inhibition vs 2% DMSO control at 48 hours
[11] = Fusarium moniliforme, growth inhibition at 48 hours vs 2% DMSO control
[12] = read-out: Concentration at 90% Inhibition Fv, Fusarium virguliforme, growth inhibition at 48 hours vs 2% DMSO control
[13] = read-out: Concentration at 90% Inhibition Fv, Fusarium virguliforme, growth inhibition vs 2% DMSO control at 48 hours
[14] = read-out: Concentration at 90% Inhibition Rs, Rhizoctonia solani, mycelial plugs, growth inhibition at 48 hours vs 2% DMSO control
[15] = read-out: Concentration at 90% Inhibition Rs, Rhizoctonia solani, mycelial plugs, growth inhibition vs 2% DMSO control at 48 hours
[16] = read-out: Concentration at 90% Inhibition St, Septoria tritici, growth inhibition at 48 hours vs 2% DMSO control
[17] = read-out: Concentration at 90% Inhibition St, Septoria tritici, growth inhibition vs 2% DMSO control at 48 hours

Sequence of human (hACC2) (O00763 whole entry): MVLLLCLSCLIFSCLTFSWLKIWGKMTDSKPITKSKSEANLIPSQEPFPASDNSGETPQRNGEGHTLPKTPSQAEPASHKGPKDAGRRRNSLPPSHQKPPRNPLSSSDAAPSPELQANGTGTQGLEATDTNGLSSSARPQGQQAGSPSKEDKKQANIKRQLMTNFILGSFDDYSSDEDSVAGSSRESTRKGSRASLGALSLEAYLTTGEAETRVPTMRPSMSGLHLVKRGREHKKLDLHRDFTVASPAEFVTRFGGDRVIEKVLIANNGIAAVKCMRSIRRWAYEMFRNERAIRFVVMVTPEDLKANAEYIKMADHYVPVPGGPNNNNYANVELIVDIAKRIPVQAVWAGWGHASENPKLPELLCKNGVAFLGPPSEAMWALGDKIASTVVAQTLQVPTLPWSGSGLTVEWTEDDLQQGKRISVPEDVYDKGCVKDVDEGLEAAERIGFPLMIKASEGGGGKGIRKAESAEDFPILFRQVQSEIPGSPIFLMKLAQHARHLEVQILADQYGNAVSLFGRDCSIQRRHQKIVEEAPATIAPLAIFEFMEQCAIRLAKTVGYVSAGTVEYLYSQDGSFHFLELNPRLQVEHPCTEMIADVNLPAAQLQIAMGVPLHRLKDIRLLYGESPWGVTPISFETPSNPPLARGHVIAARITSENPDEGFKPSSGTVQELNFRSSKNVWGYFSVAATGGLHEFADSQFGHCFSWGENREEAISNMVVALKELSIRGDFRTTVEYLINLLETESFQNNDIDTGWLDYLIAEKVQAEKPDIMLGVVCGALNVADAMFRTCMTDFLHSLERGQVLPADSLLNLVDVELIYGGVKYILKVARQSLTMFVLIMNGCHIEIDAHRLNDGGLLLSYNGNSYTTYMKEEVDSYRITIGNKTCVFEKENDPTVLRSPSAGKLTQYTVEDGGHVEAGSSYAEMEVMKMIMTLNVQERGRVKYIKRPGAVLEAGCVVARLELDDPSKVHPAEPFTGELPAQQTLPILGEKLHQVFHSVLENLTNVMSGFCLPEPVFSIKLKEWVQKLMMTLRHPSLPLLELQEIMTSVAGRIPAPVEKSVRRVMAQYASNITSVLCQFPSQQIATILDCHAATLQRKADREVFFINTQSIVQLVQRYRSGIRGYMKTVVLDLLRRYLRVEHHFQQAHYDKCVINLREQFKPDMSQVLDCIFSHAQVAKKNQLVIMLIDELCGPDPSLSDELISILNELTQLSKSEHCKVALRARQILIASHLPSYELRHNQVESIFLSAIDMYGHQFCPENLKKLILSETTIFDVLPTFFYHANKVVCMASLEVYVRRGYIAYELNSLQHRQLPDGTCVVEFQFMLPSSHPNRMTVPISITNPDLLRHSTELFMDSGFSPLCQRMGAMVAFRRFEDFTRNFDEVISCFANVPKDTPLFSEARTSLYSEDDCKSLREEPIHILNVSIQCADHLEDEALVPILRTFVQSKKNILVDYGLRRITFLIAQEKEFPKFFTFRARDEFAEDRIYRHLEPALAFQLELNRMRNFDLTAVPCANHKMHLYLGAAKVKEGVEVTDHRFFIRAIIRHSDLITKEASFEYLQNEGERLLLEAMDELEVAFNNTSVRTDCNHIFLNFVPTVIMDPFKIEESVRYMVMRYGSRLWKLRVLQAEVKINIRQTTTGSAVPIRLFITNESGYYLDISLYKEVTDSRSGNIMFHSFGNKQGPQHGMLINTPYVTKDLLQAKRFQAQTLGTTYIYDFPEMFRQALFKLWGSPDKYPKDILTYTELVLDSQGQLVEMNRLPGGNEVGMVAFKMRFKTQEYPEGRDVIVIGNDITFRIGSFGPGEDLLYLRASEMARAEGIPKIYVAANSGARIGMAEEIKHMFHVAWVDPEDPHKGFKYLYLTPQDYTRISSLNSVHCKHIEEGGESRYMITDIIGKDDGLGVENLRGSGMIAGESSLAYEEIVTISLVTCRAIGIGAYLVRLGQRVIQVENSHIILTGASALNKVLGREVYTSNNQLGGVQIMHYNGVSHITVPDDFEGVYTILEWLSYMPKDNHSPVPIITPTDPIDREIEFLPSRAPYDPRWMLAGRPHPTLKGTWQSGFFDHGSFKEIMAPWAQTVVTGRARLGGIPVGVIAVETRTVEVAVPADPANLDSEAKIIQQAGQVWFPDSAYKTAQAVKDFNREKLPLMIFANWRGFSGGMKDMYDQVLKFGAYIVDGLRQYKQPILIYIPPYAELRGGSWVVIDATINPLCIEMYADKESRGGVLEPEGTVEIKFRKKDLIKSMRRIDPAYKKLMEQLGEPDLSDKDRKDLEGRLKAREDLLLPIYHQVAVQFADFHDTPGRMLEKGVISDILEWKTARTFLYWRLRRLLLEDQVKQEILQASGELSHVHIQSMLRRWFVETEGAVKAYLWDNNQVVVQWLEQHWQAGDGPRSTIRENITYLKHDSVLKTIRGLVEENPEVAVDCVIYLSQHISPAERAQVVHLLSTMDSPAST

Row | Structure (SMILES) | IC50 (human (hACC2); Table 2a) | IC50 (human (hACC2); Table 2b, additional results) | MIC (C. albicans; [3]) | MIC (C. albicans; [4]) | MIC (C. parapsilosis; [5]) | MIC (C. parapsilosis; [6]) | IC90 (Botrtyis cinerea (Bc); [7]) | IC90 (Botrtyis cinerea (Bc); [8]) | IC90 (Diplodia maydis (Dm); [9]) | IC90 (Diplodia maydis (Dm); [10]) | Concentration at 90% Inhibition Fm [1, 11] | IC90 [1] | IC90 [2, 12] | IC90 [2, 13] | IC90 (Rhizoctonia solani (Rs); [14]) | IC90 (Rhizoctonia solani (Rs); [15]) | IC90 (Septoria tritici (St); [16]) | IC90 (Septoria tritici (St); [17]) | also measured
1 | COc1ccccc1[C@H](Cn1c(=O)n(C(C)(C)C(=O)N2CC(O)C2)c(=O)c2c(C)c(-n3nccn3)sc21)OC1CCOCC1 [Compound I-19, (R)-3-(1-(3-hydroxyazetidin-1-yl)-2-methyl-1-oxopropan-2-yl)-1-(2-(2-methoxyphenyl)-2-((tetrahydro-2H-pyran-4-yl)oxy)ethyl)-5-methyl-6-(2H-1,2,3-triazol-2-yl)thieno[2,3-d]pyrimidine-2,4(1H,3H)-dione] | 10 to 40 nM | 10 to 40 nM | 2.1 to 4 µg/mL (≈ 3.36 to 6.4 µM) | 1.01 to 2 µg/mL (≈ 1.62 to 3.2 µM) | 2.1 to 4 µg/mL (≈ 3.36 to 6.4 µM) | 1.01 to 2 µg/mL (≈ 1.62 to 3.2 µM) | 10 µg/mL (≈ 16 µM) | > 50 µg/mL | > 50 µg/mL | > 50 µg/mL | B (compound concentration of 2.0 ppm at 90% inhibition of fungal pathogens) | 2 µg/mL (≈ 3.2 µM) | 10 µg/mL (≈ 16 µM) | > 50 µg/mL | 10 µg/mL (≈ 16 µM) | > 50 µg/mL | > 50 µg/mL | > 50 µg/mL | 
2 | COc1ccc(F)cc1[C@H](Cn1c(=O)n(C(C)(C)C(=O)N2CCCCC2)c(=O)c2c(C)c(-n3nccn3)sc21)OC1CCOCC1 [Compound I-24, (R)-1-(2-(5-fluoro-2-methoxyphenyl)-2-((tetrahydro-2H-pyran-4-yl)oxy)ethyl)-5-methyl-3-(2-methyl-1-oxo-1-(piperidin-1-yl)propan-2-yl)-6-(2H-1,2,3-triazol-2-yl)thieno[2,3-d]pyrimidine-2,4(1H,3H)-dione] | 10 to 40 nM | 10 to 40 nM | 0.25 to 1 µg/mL (≈ 0.382 to 1.53 µM) | 0.25 to 1 µg/mL (≈ 0.382 to 1.53 µM) | 0.25 to 1 µg/mL (≈ 0.382 to 1.53 µM) | 0.25 to 1 µg/mL (≈ 0.382 to 1.53 µM) | 0.4 µg/mL (≈ 0.611 µM) | 0.4 µg/mL (≈ 0.611 µM) | 0.08 µg/mL (≈ 0.122 µM) | 0.08 µg/mL (≈ 0.122 µM) | AA (compound concentration of 0.08 ppm at 90% inhibition of fungal pathogens) | 0.08 µg/mL (≈ 0.122 µM) | 0.4 µg/mL (≈ 0.611 µM) | 0.4 µg/mL (≈ 0.611 µM) | 0.08 µg/mL (≈ 0.122 µM) | 0.08 µg/mL (≈ 0.122 µM) | 2 µg/mL (≈ 3.05 µM) | 10 µg/mL (≈ 15.3 µM) | 
3 | COc1ccc(F)cc1[C@H](Cn1c(=O)n(C(C)(C)C(=O)N2CC(O)C2)c(=O)c2c(C)c(-n3nccn3)sc21)OC1CCOCC1 [Compound I-26, (R)-1-(2-(5-fluoro-2-methoxyphenyl)-2-((tetrahydro-2H-pyran-4-yl)oxy)ethyl)-3-(1-(3-hydroxyazetidin-1-yl)-2-methyl-1-oxopropan-2-yl)-5-methyl-6-(2H-1,2,3-triazol-2-yl)thieno[2,3-d]pyrimidine-2,4(1H,3H)-dione] | 10 to 40 nM | 10 to 40 nM |  |  |  |  |  |  |  |  |  |  |  |  |  |  |  |  | MIC (C. albicans; Table 3a, ATCC 90028, 3 replicates, MIC recorded at 48 h, read-out: MIC, C. albicans ATCC 90028): 2.1 to 4 µg/mL (≈ 3.27 to 6.22 µM); MIC (C. albicans; Table 3b (additional results), ATCC 90028, 3 replicates, MIC recorded at 48 h, read-out: MIC, C. albicans ATCC 90028): 1.01 to 2 µg/mL (≈ 1.57 to 3.11 µM); MIC (C. parapsilosis; Table 3a, ATCC 22019, 3 replicates, MIC recorded at 48 h, read-out: MIC, C. parapsilosis ATCC 22019): 2.1 to 4 µg/mL (≈ 3.27 to 6.22 µM); MIC (C. parapsilosis; Table 3b (additional results), ATCC 22019, 3 replicates, MIC recorded at 48 h, read-out: MIC, C. parapsilosis ATCC 22019): 1.01 to 2 µg/mL (≈ 1.57 to 3.11 µM); IC90 (Botrtyis cinerea (Bc); Botrtyis cinerea, growth inhibition at 48 hours vs 2% DMSO control, read-out: Concentration at 90% Inhibition Bc): 2 µg/mL (≈ 3.11 µM); IC90 (Botrtyis cinerea (Bc); Botrtyis cinerea, growth inhibition vs 2% DMSO control at 48 hours, read-out: Concentration at 90% Inhibition Bc): 2 µg/mL (≈ 3.11 µM); IC90 (Diplodia maydis (Dm); Diplodia maydis, growth inhibition at 48 hours vs 2% DMSO control, read-out: Concentration at 90% Inhibition Dm): 10 µg/mL (≈ 15.6 µM); IC90 (Diplodia maydis (Dm); Diplodia maydis, growth inhibition vs 2% DMSO control at 48 hours, read-out: Concentration at 90% Inhibition Dm): > 50 µg/mL; IC90 [1, 11]: 0.4 µg/mL (≈ 0.622 µM); IC90 ([1]; Fusarium moniliforme, growth inhibition vs 2% DMSO control at 48 hours): 0.4 µg/mL (≈ 0.622 µM); IC90 ([2]; growth inhibition at 48 hours vs 2% DMSO control, read-out: Concentration at 90% Inhibition Fv): 2 µg/mL (≈ 3.11 µM); IC90 ([2]; growth inhibition vs 2% DMSO control at 48 hours, read-out: Concentration at 90% Inhibition Fv): 2 µg/mL (≈ 3.11 µM); IC90 (Rhizoctonia solani (Rs); mycelial plugs, growth inhibition at 48 hours vs 2% DMSO control, read-out: Concentration at 90% Inhibition Rs): 10 µg/mL (≈ 15.6 µM); IC90 (Rhizoctonia solani (Rs); mycelial plugs, growth inhibition vs 2% DMSO control at 48 hours, read-out: Concentration at 90% Inhibition Rs): > 50 µg/mL; IC90 (Septoria tritici (St); Septoria tritici, growth inhibition at 48 hours vs 2% DMSO control, read-out: Concentration at 90% Inhibition St): > 50 µg/mL; IC90 (Septoria tritici (St); Septoria tritici, growth inhibition vs 2% DMSO control at 48 hours, read-out: Concentration at 90% Inhibition St): > 50 µg/mL
